Source: US20190092804A1, “URACYL SPIROOXETANE NUCLEOSIDES” (Janssen Sciences Ireland Unlimited Company, priority 2012, published 2019)
Read-outs that look alike come from different tables or passages of the source.

Assays:
[1] = tested on: HCV type 1b replicon (Huh-7 luc/neo cells); experiment: Replicon assay (A), Huh-Luc luciferase read-out; assay type: cell-based, HCV genotype 1b; conditions: Hepatitis C virus, Huh-7, 72 h, read-out: EC50 (μM) (HCV)
Description: The compounds of formula I were examined for activity in the inhibition of HCV-RNA replication in a cellular assay. […] The cellular assay was based on a bicistronic expression construct, as described by Lohmann et al. (1999) Science vol. 285 pp. 110-113 with modifications described by Krieger et al. (2001) Journal of Virology 75: 4614-4624, in a multi-target screening strategy.
In essence, the method was as follows. The assay utilized the stably transfected cell line Huh-7 luc/neo (hereafter referred to as Huh-Luc). This cell line harbors an RNA encoding a bicistronic expression construct comprising the wild type NS3-NS5B regions of HCV type 1b translated from an internal ribosome entry site (IRES) from encephalomyocarditis virus (EMCV), preceded by a reporter portion (FfL-luciferase), and a selectable marker portion (neo^R, neomycine phosphotransferase). […]
The replicon cells were plated in 384-well plates in the presence of the test and control compounds which were added in various concentrations. Following an incubation of three days, HCV replication was measured by assaying luciferase activity (using standard luciferase assay substrates and reagents and a Perkin Elmer ViewLux™ ultraHTS microplate imager). […] The inhibitory activity of the compound on luciferase activity was monitored on the Huh-Luc cells, enabling a dose-response curve for each test compound. […]

[2] = tested on: HCV 1b bicistronic subgenomic luciferase reporter replicon clone ET or Huh-Luc-Neo; experiment: Replicon assays (B), Assay 2; assay type: cell-based; conditions: Hepatitis C virus, 72 h, 3-day incubation, 2×10^4 cells, 96-well, n = 4, read-out: Average EC50 value (8a), Assay 2
Description: The anti-HCV activity of compound 8a was tested in cell culture with replicon cells generated using reagents from the Bartenschlager laboratory (the HCV 1b bicistronic subgenomic luciferase reporter replicon clone ET or Huh-Luc-Neo). The protocol included a 3-day incubation of 2×10^4 replicon cells in a 96-well format in a six-point 1:5 dilution series of the compound. Dose response curves were generated based on the luciferase read-out.

[3] = tested on: JFH1-HCVcc in primary human hepatocytes; assay type: cell-based, HCV (JFH1); human hepatocytes; conditions: 3 days
Description: Primary human hepatocytes (PHH) were prepared from patients undergoing partial hepatectomy for metastases or benign tumors. Fresh human hepatocytes were isolated from encapsulated liver fragments using a modification of the two-step collagenase digestion method. Briefly, encapsulated liver tissue was placed in a custom-made perfusion apparatus and hepatic vessels were cannulated with tubing attached multichannel manifold. The liver fragment was initially perfused for 20 min with a prewarmed (37° C.) calcium-free buffer supplemented with ethylene glycol tetraacetic acid (EGTA) followed by perfusion with a prewarmed (37° C.) buffer containing calcium (CaCl2), H2O2) and collagenase 0.05% for 10 min. Then, liver fragment was gently shaken to free liver cells in Hepatocyte Wash Medium. Cellular suspension was filtered through a gauze-lined funnel. Cells were centrifuged at low speed centrifugation. The supernatant, containing damaged or dead hepatocytes, non parenchymal cells and debris was removed and pelleted hepatocytes were re-suspended in Hepatocyte Wash Medium. Viability and cell concentration were determined by trypan blue exclusion test.
Cells were resuspended in complete hepatocyte medium consisting of William's medium (Invitrogen) supplemented with 100 IU/L insulin (Novo Nordisk, France), and 10% heat inactivated fetal calf serum (Biowest, France), and seeded at a density 1.8×10^6 viable cells onto 6 well plates that had been precoated with a type I collagen from calf skin (Sigma-Aldrich, France) The medium was replaced 16-20 hours later with fresh complete hepatocyte medium supplemented with hydrocortisone hemisuccinate (SERB, Paris, France), and cells were left in this medium until HCV inoculation. The cultures were maintained at 37° C. in a humidified 5% CO2 atmosphere.
The PHHs were inoculated 3 days after seeding. JFH1-HCVcc stocks were used to inoculate PHHs for 12 hours, at a multiplicity of infection (MOI) of 0.1 ffu per cell. After a 12-hours incubation at 37° C., the inoculum was removed, and monolayers were washed 3 times with phosphate-buffered saline and incubated in complete hepatocyte medium containing 0.1% dimethylsufoxide as carrier control, 100 IU/ml of IFNalpha as […] or else increasing concentrations of compound 8a. The cultures then were maintained during 3 days.
Total RNA was prepared from cultured cells or from filtered culture supernatants using the RNeasy or Qiamp viral RNA minikit respectively (Qiagen SA, Courtaboeuf, France) according to the manufacturer's recommendations. HCV RNA was quantified in cells and culture supernatants using a strand-specific reverse real-time PCR technique described previously (Carrière M and al 2007):
Reverse transcription was performed using primers described previously located in the […] region of HCV genome, tag-RC1 (5′-[…]-3′) and RC21 (5′-[…]-3′) for the negative and positive strands, respectively. After a denaturation step performed at 70° C. for 8 min, the RNA template was incubated at 4° C. for 5 min in the presence of 200 ng of tag-RC1 primer and 1.25 mM of each deoxynucleoside triphosphate (dNTP) (Promega, Charbonnieres, France) in a total volume of 12 μl.
Reverse transcription was carried out for 60 min at 60° C. in the presence of 20 U RNaseOut™ (Invitrogen, Cergy Pontoise, France) and 7.5 U Thermoscript™ reverse transcriptase (Invitrogen), in the buffer recommended by the manufacturer. An additional treatment was applied by adding 1 μl (2U) RNaseH (Invitrogen) for 20 min at 37° C.
The first round of nested PCR was performed with 2 μl of the cDNA obtained in a total volume of 50 μl, containing 3 U Taq polymerase (Promega), 0.5 mM dNTP, and 0.5 μM RC1 (5′-[…]-3′) and RC21 primers for positive-strand amplification, or Tag (5′-[…]-3′) and RC21 primers for negative strand amplification. […]

[4] = tested on: HCV G1a; experiment: In vivo efficacy assay, humanized hepatocyte mouse model; set-up: species or system HCV G1a-infected PXB-mice; conditions: PXB-mice
Description: The in vivo efficacy of compound 8a and CAS-1375074-52-4 was determined in a humanized hepatocyte mouse model (PBX-mouse) as previously described in Inoue et. al (Hepatology. 2007 April; 45(4):921-8) and Tenato et. al. (Am J Pathol 2004; 165-901-912) with the following specification: Test animals: HCV […]-infected PXB-mice, male or female, >70% replacement index of human hepatocytes. Dosing was performed p.o for 7 days at doses indicated below wherein QD represents a single dose per day, BID represents two doses per day. Efficacy of compound 8a was compared to CAS-1375074-52-4.

[5] = tested on: HCV 1b bicistronic subgenomic luciferase reporter replicon clone ET or Huh-Luc-Neo; experiment: Replicon assays (B), Assay 3; assay type: cell-based; conditions: Hepatitis C virus, 72 h, 3-day incubation, 8×10^3 or 2×10^4 cells, 96-well, n = 1
Description: The anti-HCV activity of compound 8a was tested in cell culture with replicon cells generated using reagents from the Bartenschlager laboratory (the HCV 1b bicistronic subgenomic luciferase reporter replicon clone ET or Huh-Luc-Neo). The protocol included either a 3-day incubation of 8×10^3 cells or 2×10^4 cells in a 96-well format in an eight-point 1:5 dilution series of the compound. Dose response curves were generated based on the luciferase read-out.

[6] = tested on: HCV 1b bicistronic subgenomic luciferase reporter replicon clone ET; experiment: Replicon assays (B), Assay 1; assay type: cell-based; conditions: Hepatitis C virus, 72 h; 3-day incubation, 2500 cells 384-well luciferase (variation: 3000 cells 96-well qRT-PCR); n = 8
Description: The anti-HCV activity of compound 8a was tested in cell culture with replicon cells generated using reagents from the Bartenschlager laboratory (the HCV 1b bicistronic subgenomic luciferase reporter replicon clone ET). The protocol included a 3-day incubation of 2500 replicon cells in a 384-well format in a nine-point 1:4 dilution series of the compound. Dose response curves were generated based on the firefly luciferase read-out. In a variation of this assay, a 3 day incubation of 3000 cells in a 96-well format in a nine-point dilution series was followed by qRT-PCR Taqman detection of HCV genome, and normalized to the cellular transcript, RPL13 (of the ribosomal subunit RPL13 gene) as a control for compound inhibition of cellular transcription.

[7] = Cytotoxicity (CC50) in Huh-7; assay type: cell-based; conditions: human, Huh-7 cells; Huh-7 cytotoxicity
Description: The in vitro antiviral activity against HCV of the compounds of formula I can be tested in a cellular HCV replicon system based on Lohmann et al. (1999) Science 285:110-113, with the further modifications described by Krieger et al. (2001) Journal of Virology 75: 4614-4624 (incorporated herein by reference), which is further exemplified in the examples section. This model, while not a complete infection model for HCV, is widely accepted as the most robust and efficient model of autonomous HCV RNA replication currently available. It will be appreciated that it is important to distinguish between compounds that specifically interfere with HCV functions from those that exert cytotoxic or cytostatic effects in the HCV replicon model, and as a consequence cause a decrease in HCV RNA or linked reporter enzyme concentration. Assays are known in the field for the evaluation of cellular cytotoxicity based for example on the activity of mitochondrial enzymes using fluorogenic redox dyes such as resazurin. Furthermore, cellular counter screens exist for the evaluation of non-selective inhibition of linked reporter gene activity, such as firefly luciferase. […]

Which EC50 [1] does the source give for CC(C)O[P@@]1(=O)OC[C@H]2O[C@@H](n3ccc(=O)[nH]c3=O)[C@@]3(CCO3)[C@@H]2O1 [Compound 8a] here?
Its EC50 is 0.13 µM.

What about the EC50 [2] of the same molecule?
The EC50 was 17.5 µM.

And the “positive strand HCV-RNA levels in primary human hepatocytes” value (“positive strand HCV-RNA levels” for short) ([3]; Exp. 1, 0.195 μM, HCV control 3.56)?
The value was 2.18 10^6 HCV RNA copies/μg of total RNA.

And the “positive strand HCV-RNA levels” value ([3]; Exp. 1, 0.78 μm, HCV control 3.56)?
The value was 2.25 10^6 HCV RNA copies/μg of total RNA.

What about the “positive strand HCV-RNA levels” value ([3]; Exp. 1, 3.12 μm, HCV control 3.56) of the same molecule?
The value was 1.09 10^6 HCV RNA copies/μg of total RNA.

What about the “positive strand HCV-RNA levels” value ([3]; Exp. 1, 12.5 μm, HCV control 3.56) of the same molecule?
Its value is 2.17 10^6 HCV RNA copies/μg of total RNA.

What about the “positive strand HCV-RNA levels” value ([3]; Exp. 1, 50 μm, HCV control 3.56) of the same molecule?
Its value is 0.94 10^6 HCV RNA copies/μg of total RNA.

And the “positive strand HCV-RNA levels” value ([3]; Exp. 2, 0.195 μM, HCV control 5.53)?
Its value is 1.12 10^6 HCV RNA copies/μg of total RNA.

What about the “positive strand HCV-RNA levels” value ([3]; Exp. 2, 0.78 μm, HCV control 5.53) of the same molecule?
The value was 1.3 10^6 HCV RNA copies/μg of total RNA.

What about the “positive strand HCV-RNA levels” value ([3]; Exp. 2, 3.12 μm, HCV control 5.53) of the same molecule?
The value was 0.94 10^6 HCV RNA copies/μg of total RNA.

What about the “positive strand HCV-RNA levels” value ([3]; Exp. 2, 12.5 μm, HCV control 5.53) of the same molecule?
Its value is 1.3 10^6 HCV RNA copies/μg of total RNA.

And the “positive strand HCV-RNA levels” value ([3]; Exp. 2, 50 μm, HCV control 5.53)?
The value was 1.33 10^6 HCV RNA copies/μg of total RNA.

What about the “log drop HCV viral RNA after dosing for 7 days” value (shortened to “log drop HCV viral RNA”) ([4]; 50 mg/kg BID p.o.) of the same molecule?
The value was “clear log drop”.

What about the “log drop HCV viral RNA” value ([4]; 100 mg/kg BID p.o.) of the same molecule?
The value was “most pronounced log drop effect in viral RNA”.

And the “log drop HCV viral RNA” value ([4]; 100 mg/kg QD p.o.)?
The value was “clear log drop”.

What about the “log drop HCV viral RNA” value ([4]; 200 mg/kg QD p.o.) of the same molecule?
Its value is “clear log drop”.

And the EC50 [5]?
Its EC50 is > 100 µM.

And the EC50 [6]?
Its EC50 is 57 µM.

And the CC50 [7]?
Its CC50 is > 100 µM.

With IFNα as the molecule, how does the “positive strand HCV-RNA levels” value ([3]; Exp. 1, 100 IU/mL, HCV control 3.56) read?
The value was 1.48 10^6 HCV RNA copies/μg of total RNA.

And the “positive strand HCV-RNA levels” value ([3]; Exp. 2, 100 IU/mL, HCV control 5.53)?
The value was 1.59 10^6 HCV RNA copies/μg of total RNA.
